For assay [1], the species on record is Rattus norvegicus. As to the kind of experiment: Tested for enhancement against rythemice contractions and tone of rat portal vein at concentrations ranging from 2*10e-6-1*10e-5 g/mL; Active. It is filed as functional, organism-based.
For another assay, the species on record is Cavia porcellus. The experiment in a line: Tested for activity of the 250 ng/ml compound to inhibit ADP-induced aggregation in guinea pig platelet rich plasma; Inactive. It is filed as functional, organism-based.
Assay [2] is described as follows: Compound was evaluated for the potency ratio in anesthetized rats. Format: functional.
The species entered for assay [3] is Rattus norvegicus. The experiment in a line: Compound was tested for its activity to stimulate rat uterus at concentration of 2-10 e-6 g/mL; Showed very little stimulation. It is filed as functional, organism-based.

Activity calls are given as the source filed them. No cut-off for these calls is given here.

Regarding `CCCCC[C@@H](O)/C=C/[C@H]1NC(=O)C[C@@H]1CCCCCCC(=O)O`, in the assay filed under Rattus norvegicus [1], the Enhancement entry was “Active”. The inhibition entry in the assay filed under Cavia porcellus is “inactive”. The “Potency Ratio” value in assay [2] turned out to be 0.13. Also, the Activity result in the assay listed under Rattus norvegicus [3] was “very little stimulation”.

Values taken from ChEMBL document CHEMBL1121871, “Azaprostaglandin analogues. Synthesis and biological properties of 11-azaprostaglandin derivatives” (1981).
